Values quoted from earlier work as cited in patent US20240115517A1, “COMPOSITIONS AND METHODS FOR IMPROVING SKIN BARRIER” (LYCORED LTD., priority 0001, published 2024).

Columns and labels:
[1] = 4 mg/day, 9 weeks
[2] = tested on: 36 male subjects

Structure (SMILES): CC1=C(/C=C/C(C)=C/C=C/C(C)=C/C=C/C=C(C)/C=C/C=C(C)/C=C/C2=C(C)C(=O)[C@@H](O)CC2(C)C)C(C)(C)C[C@H](O)C1=O [astaxanthin, Astaxanthin]
- minimal erythema dose of UV [1]: increase
- increase of TEWL at the site of irradiation versus control group ([1]; after UV irradiation): significantly less
- TEWL compared to controls ([2]; 6 mg per day, 6 weeks): significantly reduced
- minor wrinkles, age spot size, elasticity, hydration ([2]; astaxanthin supplementation): improvements
